“And” between values parts separate entries of the source, which are not always exact repeats. Equal entries are not always repeated.
Key:
Type in all cases: cell-based, human
[1] = tested on: PBMC from allergic donors; test: IL-5 ELISPOT with extract-stimulated short-term lines; conditions: positive donor/peptide response
Procedure: (§1) Spots were counted by computer-assisted image analysis (Zeiss, KS-ELISPOT reader, Munich, Germany).
(§2) Each assay was performed in triplicate. The level of statistical significance was determined with a Student's t-test using the mean of triplicate values of the response against relevant pools or individual peptides versus the response against the DMSO control.

[2] = tested on: PBMC from allergic donors; test: Dual ELISPOT, total IL-5 and IFN-γ response (SFC); conditions: sum of IFNg and IL-5
Procedure: as §1, §2

[3] = tested on: PBMC from allergic donors; test: IFN-γ ELISPOT with extract-stimulated short-term lines; conditions: positive donor/peptide response
Procedure: as §1, §2

Molecule	Response (SFC/10^6) IL-5 ([1]; one donor per table line)	Response (SFC/10^6) Total ([2]; one donor per table line)	Response (SFC/10^6) IFNg ([3]; one donor per table line)	Response (SFC/10^6) IL-5 ([1]; each table line is one donor)	Response (SFC/10^6) Total ([2]; each table line is one donor)	Response (SFC/10^6) IFNg ([3]; each table line is one donor) [SFC/10^6]
3324.0102 (DKWLDAKSTWYGKPT)	147 SFC/10^6	593 SFC/10^6 and 233 SFC/10^6 and 123 SFC/10^6	447 SFC/10^6 and 233 SFC/10^6 and 123 SFC/10^6	–	–	–
3324.0613 (MNIKLQMPLYVAGYK)	652 SFC/10^6	652 SFC/10^6 and 120 SFC/10^6	120 SFC/10^6	–	–	–
3324.0660 (IPTAFKIGTTYTPEE)	170 SFC/10^6	280 SFC/10^6	110 SFC/10^6	–	–	–
3324.0834 (KAFNKSYATFEDEEA)	703 SFC/10^6	2267 SFC/10^6	1563 SFC/10^6	–	–	–
3324.0836 (EIDLRQMRTVTPIRM)	613 SFC/10^6	733 SFC/10^6	120 SFC/10^6	–	–	–
3324.0842 (GGAINHLSDLSLDEF)	603 SFC/10^6	773 SFC/10^6	170 SFC/10^6	–	–	–
3324.1104 (LGFFKKEALPQCAQV)	573 SFC/10^6	627 SFC/10^6	53 SFC/10^6	–	–	–
3324.1168 (NAGFKAAVAAAAVVP)	–	–	–	873 SFC/10^6 and 977 SFC/10^6 and 248 SFC/10^6	1723 SFC/10^6 and 977 SFC/10^6 and 248 SFC/10^6	850
3324.1586 (KAVEAYLVAHPDLYK)	83 SFC/10^6 and 53 SFC/10^6 and 143 SFC/10^6 and 443 SFC/10^6	83 SFC/10^6 and 53 SFC/10^6 and 143 SFC/10^6 and 553 SFC/10^6	110 SFC/10^6	–	–	–
3324.1592 (LGRAWFEAARVVFSY)	–	–	–	1430 SFC/10^6	1550 SFC/10^6	120
3324.1625 (GFYLQWAVHSFRITN)	–	–	–	143 SFC/10^6	337 SFC/10^6	193
3337.0008 (WLDAKSTWYGKPTGA)	57 SFC/10^6	140 SFC/10^6 and 57 SFC/10^6 and 283 SFC/10^6 and 163 SFC/10^6	140 SFC/10^6 and 283 SFC/10^6 and 163 SFC/10^6	–	–	–
3337.0028 (EPIAPYHFDLSGHAF)	97 SFC/10^6	253 SFC/10^6	157 SFC/10^6	–	–	–
3337.0044 (IKLVKSSRPDCSEIP)	–	–	–	233 SFC/10^6	90 SFC/10^6 and 233 SFC/10^6	90
CC[C@H](C)[C@H](NC(=O)[C@H](CC(N)=O)NC(=O)[C@H](CC(C)C)NC(=O)[C@H](CC(N)=O)NC(=O)[C@H](CCCCN)NC(=O)[C@H](CO)NC(=O)[C@H](Cc1ccccc1)NC(=O)[C@@H](NC(=O)[C@@H](NC(=O)[C@H](Cc1c[nH]c2ccccc12)NC(=O)[C@H](CC(C)C)NC(=O)[C@H](CO)NC(=O)[C@H](CCCNC(=N)N)NC(=O)[C@@H](N)CCC(=O)O)[C@@H](C)CC)[C@@H](C)CC)C(=O)N[C@@H](CCCCN)C(=O)O [3324.0517]	117 SFC/10^6	117 SFC/10^6 and 97 SFC/10^6	97 SFC/10^6	–	–	–
CC[C@H](C)[C@H](NC(=O)[C@H](CC(N)=O)NC(=O)[C@@H](NC(=O)[C@H](CC(=O)O)NC(=O)[C@@H](N)CCC(=O)O)[C@@H](C)O)C(=O)N[C@@H](Cc1ccc(O)cc1)C(=O)N[C@@H](CC(N)=O)C(=O)N[C@@H](CO)C(=O)N[C@@H](CC(N)=O)C(=O)N[C@@H](CCC(=O)O)C(=O)N[C@@H](C)C(=O)N[C@@H](Cc1ccccc1)C(=O)N[C@@H](CCCCN)C(=O)N[C@H](C(=O)N[C@@H](CCC(=O)O)C(=O)O)C(C)C [3324.0606]	427 SFC/10^6	427 SFC/10^6 and 240 SFC/10^6 and 73 SFC/10^6	240 SFC/10^6 and 73 SFC/10^6	–	–	–

Source: patent US10918713B2, “Epitopes from allergen proteins and methods and uses for immune response modulation” (LA JOLLA INSTITUTE FOR ALLERGY AND IMMUNOLOGY, priority 2012, dated 2021)
